Values quoted from earlier work, collected in patent US20080268034A1, “Solid Oral Dosage Forms of Ziprasidone Containing Colloidal Silicone Dioxide” (priority 2005, published 2008).

solubility: very poor solubility
Structure (SMILES): O=C1Cc2cc(CCN3CCN(c4nsc5ccccc45)CC3)c(Cl)cc2N1 [Ziprasidone free base, 5-[2-[4-(1,2-benzisothiazol-3-yl)-1-piperazinyl]ethyl]-6-chloro-1,3-dihydro-2H-indol-2-one]
